Reference: patent publication US20090131337A1, “HAIR GROWTH COMPOSITION” (AJINOMOTO CO. INC, priority 2006, published 2009)

Legend:
[1] = system: hair papilla cells; assay: Hair papilla cell proliferation test (MTT method); assay type: cell-based; settings: concentration used 100 · mol/L; 2 days culture; DMEM with 1% FCS; medium free of hair growth components = 100
Experimental: (1) Using a proliferation medium PCGM: Papilla Cell Growth Medium (purchased from TOYOBO CO., LTD., TPGM-250), hair papilla cells were plated to a cell seeding density of 1.0×10^4 cells/well in a 96 well plate.
(§1) (2) After culturing at 37° C. in a 5% carbon dioxide gas (CO2) atmosphere for one day, the medium was removed, and the cells were washed with an evaluation medium used for cell proliferation tests, i.e., DMEM (Dulbecco's Modified Eagle's Medium) medium containing 1% FCS (fetal bovine serum). Then, various test components were dissolved in a similar evaluation medium and added to various concentrations (* mol/l).
(3) Subsequently, the cells were further cultured at 37° C. in a 5% carbon dioxide gas (CO2) atmosphere for 2 days, and the hair papilla cell proliferation rate was measured by the MTT method.
(§2) (4) The relative evaluation value was calculated based on the rate obtained using a medium free of various hair growth components as 100, and the value was taken as the proliferation rate.

[2] = system: human epidermal keratinocytes; assay: Human epidermal keratinocyte proliferation test (MTT method, MCDB153 medium); assay type: cell-based; settings: concentration used 50 · mol/L, 2 days culture, medium free of hair growth components = 100
Experimental: (1) Using a serum-free proliferation medium HuMedia-KB2 (purchased from KURABO INDUSTRIES LTD., KK-2350S) added with a proliferation additive HuMedia-KG (purchased from KURABO INDUSTRIES LTD., KK-6150), human epidermal keratinocytes were plated to a cell seeding density of 2.0×10^4 cells/well in a 96 well plate.
as §1, with “MCDB153 medium.” for “DMEM (Dulbecco's Modified Eagle's Medium) medium containing 1% FCS (fetal bovine serum).”
(3) Subsequently, the cells were further cultured at 37° C. in a 5% carbon dioxide gas (CO2) atmosphere for 2 days, and the human epidermal keratinocyte proliferation rate was measured by the MTT method.
as §2

[3] = Solubility of glutamyllysine powder in solvents; assay type: physicochemical

| SMILES | hair papilla cell proliferation rate (%) [1] [%] | keratinocyte proliferation rate (%) [2] [%] | solubility in alkaline water, acidic water ([3]; alkaline water, acidic water and the like) | solubility in organic solvents ([3]; various organic solvents such as methanol, ethanol, acetone) |
| --- | --- | --- | --- | --- |
| NC(CCCCNC(=O)CCC(N)C(=O)O)C(=O)O (centres unmarked) [glutamyllysine, Epsilon-N-(gamma-glutamyl)lysine] | 124 | 131 | soluble | hardly soluble or insoluble |
| Nc1ncnc2c1ncn2[C@@H]1O[C@H](CO)[C@@H](O)[C@H]1O [adenosine] | 99 | 118 | – | – |
| Nc1cc(N2CCCCC2)nc(N)[n+]1[O-] [minoxidil] | 113 | 117 | – | – |
